According to US20240307283A1, “COMPOSITIONS AND METHODS FOR DECREASING PIGMENTATION” (The General Hospital Corporation, priority 2021, published 2024):

How the values were obtained:
[1] = system: human skin explants; assay: Depigmentation of human skin explants by NNT activators; type: cell-based; settings: after 36 hours, DMSO-based carrier, FIGS. 13A-B
Experimental: Skin samples considered surgical waste were obtained de-identified from healthy donors (IRB #2013P000093) undergoing reconstructive surgery, according to institutional regulations. Full thickness human abdominal skin explants were cultured in petri dishes with a solid phase and liquid phase phenol red free DMEM medium containing 20% penicillin/streptomycin/glutamine, 5% fungizone (Gibco), and 10% fetal bovine serum. Compounds were applied strictly on top of the explants, making sure no drip occurred into the underlying media. For UV irradiation experiments, a UV lamp (UV Products) was used at 1000 mJ/cm^2 UVB.
The ability of ASS, Usnic acid, 4-hexylresorcinol, candesartan, Nigericin, elaidylphosphocholine, hexitidine, naproxol, and Ginkgolic acid to depigment skin was tested in human skin explants. A DMSO-based carrier solution was used. DMSO was used as a negative control. […]

[2] = system: human skin; assay: Topical treatment of a human subject (skin type 2); type: in vivo; settings: 100 uM in DMSO, 15 days, twice per day
Experimental: A human subject with skin type 2 was treated with Hexetidine 100 uM in DMSO for 15 days, twice per day, individual.

[3] = system: tyrosinase; assay: Cycloheximide chase assay of tyrosinase protein stability; type: cell-based, human; settings: UACC257, 5 mM NAC, 0.1 mM NADPH, 20 μM MitoTEMPO for 48 h, then CHX
Experimental: Cycloheximide chase assay: 72 h after siRNA transfection (sicontrol or siNNT), UACC257 melanoma cells were treated with a protein synthesis inhibitor, cyclohexamide (CHX, Sigma Aldrich #C7698, 50 μg/ml), for the indicated times and then immediately subjected to immunoblotting for tyrosinase protein expression. The expression of tyrosinase was quantified using ImageJ software based on band intensities and normalized to the intensities of the corresponding β-actin bands. The normalized tyrosinase expression was then defined as relative tyrosinase expression by setting the mean values at t=0 in each experimental group to 1.0. […] The siRNA-transfected cells were cultured for an additional 48 h in the presence of these agents and then examined by the CHX chase assay as described above. pLJM-1-EGFP or pLJM1-NNT/FLAG was introduced into UACC257 cells using Lipofectamine 3000, 48 after transfection, the transfection medium was replaced with fresh medium containing DMSO or 10 μM MG132 (Sigma Aldrich #M8699) and pre-incubated for 6 h. Then. CHX was added to assess tyrosinase protein stability as described above.

[4] = system: UACC257 cells; assay: siNNT-induced pigmentation with antioxidants, melanin content; type: cell-based, human; settings: NAC 5 mM, MitoTEMPO 20 μM daily for 72 h; NADPH 0.1 M
Experimental: (§1) sIRNA transfection: A single treatment of 10 nmol/L of siRNA was delivered to a 60% confluent culture by transfection with Lipofectamine RNAiMAX (Life Technologies, #13778150) according to the manufacturer's recommendations. After 48-72 h of transfection, total RNA or protein was harvested. Melanin quantification: Equal numbers of cells were plated in 6-well plates. The cells were then harvested 72-96 hours post siRNA or NNT inhibitors compounds, as indicated in the legends, pelleted, washed in PBS and counted. 10^6 cells were used for measurement of protein concentration with the Pierce BCA protein assay (Thermo Fisher Scientific, #23225) and 10^6 cells were resuspended in 60 μl of 1 N NaOH solution and incubated at 60° C. for 2 h or until the melanin was completely dissolved. After cooling down to room temperature, samples were centrifuged at 500×g for 10 min and the supernatants were loaded onto a 96-well plate. The melanin content was determined by measuring the absorbance at 405 nm on an Envision plate reader, compared with a melanin standard (0 to 50 μg/ml; Sigma Aldrich, #M8631). Melanin content was expressed as micrograms per milligram of protein.

[5] = system: NNT; assay: Immunoblot of NNT after redox modulators; type: cell-based, human; settings: UACC257, NAC 5 mM, MitoTEMPO 20 μM, H2O2 100 μM, daily for 72 hours
Experimental: Immunoblotting: Whole-cell protein lysates were prepared using RIPA lysis buffer (Sigma-Aldrich, #R0278) supplemented with Protease and Phosphatase Inhibitor (ThermoFisher Scientific, #P178445). Protein concentrations were quantified using the Pierce BCA protein assay (ThermoFisher Scientific, #23225). Immunoblotting was performed by standard techniques using 4-15% Criterion TGX Precast Midi Protein gels (Bio-Rad Laboratories, #5671084) and transferring to 0.2 μm nitrocellulose membranes (Bio-Rad Laboratories, #1620112). Membranes were blocked with 5% non-fat milk (Boston BioProducts, #P-1400) in PBS containing 0.1% […] and incubated with one of the following primary antibodies at the indicated dilution (antibody sources are in the Key Resources Table): 1:20 dilution of anti-MITF monoclonal antibody CS, 1:1,000 dilution of anti-Tyrosinase clone T311, 1:1,000 dilution of anti-Mitofusin-2 antibody [6A8], 1:500 dilution of TRP2/DCT antibody, 1:1,000 dilution of anti-NNT antibody [8B4BB10], 1:1,000 dilution of anti-IDH1 ([…]) antibody, 1:1,000 dilution of p53 antibody [PAb 240], 1:1,000 dilution of TYRP1 antibody [EPR21960], 1:1,000 dilution of mouse monoclonal antibody Pmel17 (E-7), or 1:1,000 dilution of LC3B (D11) rabbit monoclonal antibody. Incubation with the appropriate secondary antibody followed, either a 1:5,000 dilution of donkey anti-Rabbit IgG-HRP or a 1:3,000 dilution of Amersham ECL mouse IgG, HRP. To verify equal loading of samples, membranes were re-probed with a 1:20,000 dilution of monoclonal anti-β-actin-peroxidase (Sigma Aldrich, #A3854). Protein bands were visualized using Western Lightning Plus ECL (PerkinElmer, #NEL105001EA) and quantified using ImageJ software (NIH).

[6] = system: primary human melanocytes; assay: Melanosome maturation by transmission electron microscopy; type: cell-based; settings: NAC 5 mM or MitoTEMPO 20 μM; for siNNT-induced melanosome maturation: daily for 96 h; for total number of melanosomes per um^2: daily for 96 hours
Experimental: Transmission electron microscopy: Cultured primary human melanocytes were grown in Medium 254 in 6-well transwell plates. Ninety-six h post siRNA or overexpression treatment, the cells were fixed with a modified Kamovsky's fixative (2% paraformaldehyde/2.5% glutaraldehyde in 0.1 M sodium cacodylate buffer, pH 7.4) for at least 2 h on a gentle rotator, followed by rinsing several times with 0.1 M cacodylate buffer. Then, the cells were treated with 1% osmium tetroxide/0.1 M cacodylate buffer for 1 h, rinsed thoroughly in 0.1 M cacodylate buffer, scraped, and the cell suspensions were transferred into 15 ml centrifuge tubes and centrifuged (3,000 rpm) for 15 min at 4° C.). Pelleted material was embedded in 2% agarose, dehydrated through an ethanol gradient (series of solutions from 30% to 100% ethanol), dehydrated briefly in 100% propylene oxide, then allowed to infiltrate overnight on a gentle rotator in a 1:1 mix of propylene oxide and Eponate resin (Ted Pella, Inc., kit with DMP30, #18010′). The following day, specimens were transferred into fresh 100% Eponate resin for 2-3 hours, then embedded in flat molds in 100% fresh Eponate resin, and embeddings were allowed to polymerize for 24-48 h at 60° C. Thin (70 nm) sections were cut using a Leica EM UC7 ultramicrotome, collected onto formvar-coated grids, stained with 2% uranyl acetate and Reynold's lead citrate, and examined in a JEOL JEM 1011 transmission electron microscope at 80 kV. Images were collected using an AMT digital imaging system with proprietary image capture software (Advanced Microscopy Techniques, Danvers, MA). Measurements of distances between melanosomes and mitochondria were quantified in FIJI (ImageJ) (Schindelin et al., 2012) by applying a customized macro to TEM micrographs. Melanosomes (N=˜50) were randomly selected for each condition within the whole image data set. Thirty Euclidean distances from the melanosome surface to the closest mitochondria surface were measured in nm. From these 30 single measurements the mean was calculated to give a final single mean value per melanosome-mitochondria event. A total of ˜50 events (N) were quantified per condition. Data were plotted and statistically analyzed using Prism 8 (Version 8.4.3). […] Cell area (μm^2), number of melanosome-mitochondria contacts, and number of mitochondria were quantified in FIJI (ImageJ) using polygon and multi-point selection tools. Melanosome identification and quantification were performed with images at 40,000× magnification or higher. […] All identifiable melanosomes in 4 cells per condition were quantified and classified, and the proportions of each stage were normalized to cell cytosolic area (determined by ImageJ).

[7] = system: human melanocytes, dermal fibroblasts, and keratinocytes; assay: Cell viability of human skin cells with NNT inhibitors; type: cell-based; settings: up to 10 μM, FIG. 10B
Experimental: Primary human keratinocytes were cultured in EpiLife® medium supplemented with human keratinocyte growth supplement (HKGS, ThermoFisher Scientific). Primary human fibroblasts were cultured in medium 106 supplemented with low serum growth supplement (LSGS, ThermoFisher Scientific). 10^6 and […] cells were plated per well of 6-well and 96-well plates, respectively. Drugs indicated in the figure legends were dissolved in DMSO and added 1:1000 to the culture media for 24 h at the concentrations indicated.
Cell viability assay: Human melanoma cell lines and isolated primary cultured human melanocytes were propagated and tested in early passage (Passages 7 to 9). The effects of NNT inhibitors (2,3BD, DCC, and Palmitoyl coenzyme A lithium salt) on cell viability were evaluated by the CellTiter-Glo Luminescent Cell Viability Assay (Promega, #G7570) and measurement of luminescence was performed on an EnVision 2104 Multilabel Reader (PerkinElmer). Human melanoma cell lines and primary melanocytes were plated on 96-well white plates (10,000 cells/well) and were treated with the NNT inhibitors at the indicated concentrations for 24 h.

[8] = system: murine Melan-A cells; assay: Melanin content of Melan-A cells with NNT inhibitors; type: cell-based, mouse; settings: 2 mM, FIG. 3A
Experimental: Murine Melan-A (Bennett et al., 1987) cells were obtained from the Wellcome Trust Functional Genomics Cell Bank. Melan-A cells were grown in RPMI 1640 supplemented with 10% FBS or FetalPlex (Gemini Bio-Products, #100-602), 100,000 U/L penicillin, 100 mg/L streptomycin sulphate, 100× Glutamax, and 200 nM TPA.
In vitro culture with NNT inhibitors: 2,3-Butanedione 97% (2,3 BD) (Sigma Aldrich, #B85307) (1 μM, 10 μM, 100 μM, 2 mM), N,N-Dicyclohexylcarbodiimide (DCC) (Sigma Aldrich, #D80002) (1 mM, 2 mM, 10 mM), and Palmitoyl coenzyme A lithium salt (Sigma Aldrich, #P9716) (10 μM, 2 mM) were reconstituted with DMSO (American Type Culture Collection, 4-X).
as §1, with “Melanin” for “sIRNA transfection: A single treatment of 10 nmol/L of siRNA was delivered to a 60% confluent culture by transfection with Lipofectamine RNAiMAX (Life Technologies, #13778150) according to the manufacturer's recommendations. After 48-72 h of transfection, total RNA or protein was harvested. Melanin”

[9] = system: human skin explants; assay: Pigmentation of human skin explants with topical NNT inhibitors; settings: human skin explants, data not shown

Structure (SMILES)	ability to depigment skin [1]	depigmentation of human skin [2]	irritation [2]	siNNT-increased tyrosinase protein stability [3]	siNNT-mediated increase in pigmentation [4]	NNT protein levels [5]	siNNT-induced melanosome maturation [6]	total number of melanosomes per um^2 [6]	toxicity (viability) [7]	melanin content [8]	effect on pigmentation [9]	penetration of the epidermis [9]
CCCCC(CC)CN1CN(CC(CC)CCCC)CC(C)(N)C1 (centres unmarked) [Hexetidine, 1,3-bis(2-ethylhexyl)-5-methyl-1,3-diazinan-5-amine]	depigmenting effects	successful depigmentation	without significant irritation									
CC1(C)CC(NC(=O)C[P+](c2ccccc2)(c2ccccc2)c2ccccc2)CC(C)(C)N1[O] [MitoTEMPO]				prevented	inhibited the siNNT-mediated increase in pigmentation	did not impact NNT protein levels	prevented the siNNT-induced phenotype	not altered				
CC(=O)N[C@@H](CS)C(=O)O [NAC, N-acetylcysteine]				prevented	inhibited the siNNT-mediated increase in pigmentation	did not impact NNT protein levels	prevented the siNNT-induced phenotype	not altered				
CCCCCCCCCCCCCCCC(=O)SCCNC(=O)CCNC(=O)[C@H](O)C(C)(C)COP(=O)(O)OP(=O)(O)OC[C@H]1O[C@@H](n2cnc3c(N)ncnc32)[C@H](O)[C@@H]1OP(=O)(O)O.[Li] [Palmitoyl-CoA, Palmitoyl coenzyme A lithium salt]									no significant toxicity	not	no effect on pigmentation	did not penetrate the epidermis
